{
  "source": "patent US20090203877A1",
  "about": "“X-RAY-DENSE CONJUGATE” (Eberhard-Karls-Universitaet Tuebingen Universitaetsklinkum, priority 2006, published 2009)",
  "key": {"[1]": {"system": "human malignant U373 glioma cells", "assay": "Cell viability / cell death (MTT test, propidium iodide, annexin-V-Alexa 568 binding, FACS scatter morphology)", "conditions": "260 μM in 0.1% DMSO/PBS, 20 min, substance alone", "method": "Human malignant U373-glioma cells were grown to 70% confluency in RPMI-1640 Ready Mix Medium containing L-Glutamine and 10% FBS-Gold (PAA laboratories, Pasching, Austria) at 37° C., 5% CO2 (vol/vol), in 4-well-plates (NUNC, Wiesbaden, Germany) with about 300,000 cells pro well. […] After this, the cells were washed three times with buffer and then incubated with Ready Mix Medium again. Cell viability was then assessed by the addition of methyl-thiazoyl-tetrazolium (MTT) salt (Sigma-Aldrich, Germany) at a concentration of 15 mg/ml. After 20 minutes, the production of formazan was investigated. When blue formazan granules were detected, propidium iodine (PI) was added to the medium (1 μM PI; Molecular Probes, Eugene, Oreg., USA) to detect cells with damaged cell membranes. […] Pictures were taken with a 3-CCD color video camera (MC3254P, Sony, Japan) and the Axiovision Software (Carl Zeiss, Jena, Germany). The intensity of cell fluorescence was recorded at the exposure time necessary for the production of the fluorescence images.\nAfter imaging, Accutase™ (PAA laboratories, Pasching, Austria) was added to the wells to achieve detachment of the cells for further FACS analysis. Fluorescence was measured in a Becton Dickinson FACSCalibur. A total of 20,000 events per sample were analyzed. The investigations were performed in triplicate.\nA sample of cells from each Eppendorf tube was subjected to the MTT test (described under 1.4) to determine microscopically whether the cells were viable. In vitro CT of the cell pellets was performed with a Somatom Sensation 16 (Siemens) which is used for routine clinical investigations.\nCells were incubated for 20 minutes with each of the conjugates dissolved in 0.1% DMSO/PBS at 260 μm. The cells were also incubated with TIBA and both of the non-TIBA-containing conjugates (3 and 4) separately in 0.1% DMSO/OBS at 260 μm. Both TIBA and the conjugates were dissolved in 0.1% DMSO/PBS at 260 μm for incubation due to the insolubility of TIBA (but not the conjugates) in pure PBS. As controls, the cells were incubated with PBS alone, 0.1% DMSO/PBS alone, and TIBA alone (260 μm in 0.1% DMSO/PBS).\nThe detection of phosphatidyl serine in the outer membrane leaflet of apoptotic cells was performed with the Annexin-V-Alexa™-568-reagent according to manufacturer's protocol (Roche Molecular Biochemicals, Indianapolis, USA). The confocal laser-scanning microscopy was performed on an inverted LSM 510 laser-scanning microscope (Carl Zeiss, Jena, Germany) (objectives: LD Achroplan 40×0.6, Plan Neofluar 20×0.50, 40×0.75). For fluorescence excitation, the 488 nm line of an argon-ion laser and the […] line of a helium-neon laser with appropriate beam splitters and barrier filters were used for FITC and Alexa respectively. Superimposed images of FITC- and Alexa-stained samples were created by overlaying coincident views. All measurements were performed on living, non-fixed cells.\nHuman malignant LN18 and U373 glioma cells were cultivated in four-well plates (NUNC, Wiesbaden, Germany) (about 300,000 cells per well) as described under 1.5. […] The cells were also coincubated either with CIBA, FIBA or TBPI as well as the NLS-FITC conjugate 3 (each 260 μM). As a control cells were used which were only incubated either with CIBA, FIBA or TBPI (260 μM in PBS) alone. After the incubation the cells were washed three times with PBS and in the following again incubated in Ready Mix Medium. The FITC-labelled conjugates and the Alexa-Annexin for the detection of phosphatidylserine as a signal of the cell death were localized with the confocal laser microscopy (CLSM) as in 1.6.1. All measurements were performed on living cells."}, "[2]": {"system": "human malignant U373 glioma cells", "assay": "Computer tomography, signal density of cell pellets", "type": "cell-based", "conditions": "260 μM, 20 min", "method": "For CT and FACS human U373 glioma cells were grown under the same conditions in 75 cm^2 culture flasks (Corning Costar, Bodenheim, Germany) (70% confluency). Accutase™ (PAA laboratories, Pasching, Austria) was added to achieve detachment of the cells which were harvested and subsequently aliquoted into Eppendorf tubes (6×10^6 cells per tube). As in the investigations performed by fluorescence microscopy, the cells in the first tube served as a control (PBS only). The cells in the other tubes were incubated with 260 μM Ultravist, 260 μM TIBA in PBS and 26 μM, 260 μM and 2.6 mM conjugates 1-4 in PBS. After a 20 minute incubation period at 37° C. in an atmosphere of 5% CO2, the cells were washed three times in PBS and centrifuged at 800 rpm for 5 minutes.\nThe inner ear spiral CT protocol consisted of: tube voltage 120 KV, effective mAs 550, time of imaging TI: 1.5, SL 0.75/0.75/4.5, FOV: 50 0/52, kernel: U70, window: intervertebral disc.\n3D-images were obtained using InSpace Software (Syngo CT 2006G) (Siemens AG, Erlangen, Germany).\nAfter an incubation of 20 minutes at 37° C./5% CO2 the cells were washed three times with PBS buffer and centrifuged at 800 rpm (rounds per minute) for 5 minutes. The fluorescence was measured in Becton Dickinson FACSCalibur as described under 1.4. The computer tomography was performed as described under 1.5.1. The examinations were repeated two times. […]\nAn Orbita CT spiral was used: tube voltage 120 KV, effective mAs 550, time of imaging TI: 1.5, SL 0.75/0.75/4.5, FOV: 50 0/52, GT: 0.0, kernel: U70, window: intervertebral disc. 3D images were made with the InSpace Software (Syngo CT 2006G) (Siemens AG, Erlangen, Germany). […]"}, "Solubility": {"assay": "Solubility", "type": "physicochemical", "conditions": "260 μM"}, "[3]": {"conditions": "cited from earlier work"}},
  "note": "Entries after “also recorded” stand apart in the source; their conditions may differ.",
  "data": [
    {"molecule": "O=C(O)c1cc(I)cc(I)c1I", "note": "[TIBA, 2,3,5-triiodobenzoic acid, reference compound]", "values": [
      {"measurement": "binding of annexin-V-Alexa 568 reagent (phosphatidyl serine) / cytotoxic effects", "setting": "[1]", "value": "did not result in binding; also recorded: did not appear to produce any cytotoxic effects"},
      {"measurement": "CT signal density of cell pellets", "setting": "[2]", "value": "only low signal density values; also recorded: did not result in any increase in signal density"},
      {"measurement": "solubility in pure PBS", "setting": "Solubility", "value": "insolubility"},
      {"measurement": "solubility in water", "setting": "[3]", "value": "does not dissolve in water"}
    ]}
  ]
}
